# Source: patent publication US12479847B2 (DANA-FARBER CANCER INSTITUTE, INC., priority 2019, dated 2025)
# Like-named read-outs stand apart in the source and are kept apart here.
# Legend:
# Experiment in all cases: KINOMEscan (ScanMAX) kinase profiling
# Assay type in all cases: binding
# [1] = target: T1, panel of 468 kinases (Homo sapiens, UniProt O96013); settings: PAK4; 1 μM; read-out: % control
# T1 construct: purchased KINOMEscan (ScanMAX) service
# [2] = target: T2, panel of 468 kinases (Homo sapiens, UniProt P42680); settings: TEC; 1 μM; read-out: % control
# T2 construct: purchased KINOMEscan (ScanMAX) service
# T2 sequence (P42680 1-631): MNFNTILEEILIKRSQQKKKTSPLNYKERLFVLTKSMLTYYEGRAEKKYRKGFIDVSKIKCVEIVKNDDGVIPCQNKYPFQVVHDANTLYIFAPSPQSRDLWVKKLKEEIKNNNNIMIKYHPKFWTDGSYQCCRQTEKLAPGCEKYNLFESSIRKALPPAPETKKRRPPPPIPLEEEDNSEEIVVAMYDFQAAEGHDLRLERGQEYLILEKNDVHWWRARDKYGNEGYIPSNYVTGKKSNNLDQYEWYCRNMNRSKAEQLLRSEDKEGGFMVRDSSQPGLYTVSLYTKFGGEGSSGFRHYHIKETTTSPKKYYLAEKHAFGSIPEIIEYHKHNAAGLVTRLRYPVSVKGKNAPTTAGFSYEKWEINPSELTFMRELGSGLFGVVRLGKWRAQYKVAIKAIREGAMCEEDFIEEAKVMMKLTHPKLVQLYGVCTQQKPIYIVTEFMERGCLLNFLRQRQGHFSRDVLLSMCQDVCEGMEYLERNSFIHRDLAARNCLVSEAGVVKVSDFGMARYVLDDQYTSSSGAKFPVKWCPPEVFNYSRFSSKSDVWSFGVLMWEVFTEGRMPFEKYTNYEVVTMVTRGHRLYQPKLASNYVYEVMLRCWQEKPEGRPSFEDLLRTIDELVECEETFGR
# [3] = target: T3, panel of 468 kinases (Homo sapiens, UniProt P49841); settings: GSK3B; 1 μM; read-out: % control
# T3 construct: purchased KINOMEscan (ScanMAX) service
# [4] = target: T4, panel of 468 kinases (Homo sapiens, UniProt Q12851); settings: MAP4K2; 1 μM; read-out: % control
# T4 construct: purchased KINOMEscan (ScanMAX) service
# T4 sequence (Q12851 1-820): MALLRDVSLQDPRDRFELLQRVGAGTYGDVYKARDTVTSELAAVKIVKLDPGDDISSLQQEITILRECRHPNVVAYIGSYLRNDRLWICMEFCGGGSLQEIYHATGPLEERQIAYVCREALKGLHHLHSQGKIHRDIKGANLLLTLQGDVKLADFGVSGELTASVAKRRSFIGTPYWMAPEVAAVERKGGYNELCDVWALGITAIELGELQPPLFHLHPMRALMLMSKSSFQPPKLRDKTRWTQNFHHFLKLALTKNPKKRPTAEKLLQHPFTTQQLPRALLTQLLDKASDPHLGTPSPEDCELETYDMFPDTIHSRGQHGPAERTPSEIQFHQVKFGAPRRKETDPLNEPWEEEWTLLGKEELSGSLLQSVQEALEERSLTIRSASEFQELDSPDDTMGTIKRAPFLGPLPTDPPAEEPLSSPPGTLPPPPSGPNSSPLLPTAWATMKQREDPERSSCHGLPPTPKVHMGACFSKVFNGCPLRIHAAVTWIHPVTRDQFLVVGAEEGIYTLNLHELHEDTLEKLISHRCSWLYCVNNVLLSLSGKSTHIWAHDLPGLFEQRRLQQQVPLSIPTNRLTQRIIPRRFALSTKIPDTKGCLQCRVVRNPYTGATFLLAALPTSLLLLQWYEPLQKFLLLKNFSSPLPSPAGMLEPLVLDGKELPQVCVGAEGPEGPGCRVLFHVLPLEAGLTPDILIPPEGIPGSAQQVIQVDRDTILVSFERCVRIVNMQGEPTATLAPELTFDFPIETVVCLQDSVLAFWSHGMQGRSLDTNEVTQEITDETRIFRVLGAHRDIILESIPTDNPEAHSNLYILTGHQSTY
# [5] = target: T5, panel of 468 kinases (Homo sapiens, UniProt P49137); settings: MAPKAPK2; 1 μM; read-out: % control
# T5 construct: purchased KINOMEscan (ScanMAX) service
# [6] = target: T6, panel of 468 kinases (Homo sapiens, UniProt P22694); settings: PKAC-beta; 1 μM; read-out: % control
# T6 construct: purchased KINOMEscan (ScanMAX) service
# [7] = target: T7, panel of 468 kinases (Homo sapiens, UniProt P00519, F317I); settings: 1 μM, read-out: % control
# T7 construct: purchased KINOMEscan (ScanMAX) service
# [8] = target: T8, panel of 468 kinases (Homo sapiens, UniProt Q8TBX8); settings: PIP5K2C; 1 μM; read-out: % control
# T8 construct: purchased KINOMEscan (ScanMAX) service
# T8 sequence (Q8TBX8 1-421): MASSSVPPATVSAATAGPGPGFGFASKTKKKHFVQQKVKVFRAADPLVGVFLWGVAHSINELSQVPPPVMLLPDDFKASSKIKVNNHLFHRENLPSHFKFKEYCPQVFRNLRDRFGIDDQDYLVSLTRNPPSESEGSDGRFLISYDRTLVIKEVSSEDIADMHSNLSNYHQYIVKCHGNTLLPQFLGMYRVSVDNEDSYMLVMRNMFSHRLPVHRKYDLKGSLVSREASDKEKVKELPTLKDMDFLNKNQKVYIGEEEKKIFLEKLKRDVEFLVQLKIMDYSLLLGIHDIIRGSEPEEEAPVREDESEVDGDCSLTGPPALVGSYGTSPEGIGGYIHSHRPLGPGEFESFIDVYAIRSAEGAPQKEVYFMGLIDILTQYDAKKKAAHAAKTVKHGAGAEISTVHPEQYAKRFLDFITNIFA
# T7 sequence (P00519 whole entry F317I): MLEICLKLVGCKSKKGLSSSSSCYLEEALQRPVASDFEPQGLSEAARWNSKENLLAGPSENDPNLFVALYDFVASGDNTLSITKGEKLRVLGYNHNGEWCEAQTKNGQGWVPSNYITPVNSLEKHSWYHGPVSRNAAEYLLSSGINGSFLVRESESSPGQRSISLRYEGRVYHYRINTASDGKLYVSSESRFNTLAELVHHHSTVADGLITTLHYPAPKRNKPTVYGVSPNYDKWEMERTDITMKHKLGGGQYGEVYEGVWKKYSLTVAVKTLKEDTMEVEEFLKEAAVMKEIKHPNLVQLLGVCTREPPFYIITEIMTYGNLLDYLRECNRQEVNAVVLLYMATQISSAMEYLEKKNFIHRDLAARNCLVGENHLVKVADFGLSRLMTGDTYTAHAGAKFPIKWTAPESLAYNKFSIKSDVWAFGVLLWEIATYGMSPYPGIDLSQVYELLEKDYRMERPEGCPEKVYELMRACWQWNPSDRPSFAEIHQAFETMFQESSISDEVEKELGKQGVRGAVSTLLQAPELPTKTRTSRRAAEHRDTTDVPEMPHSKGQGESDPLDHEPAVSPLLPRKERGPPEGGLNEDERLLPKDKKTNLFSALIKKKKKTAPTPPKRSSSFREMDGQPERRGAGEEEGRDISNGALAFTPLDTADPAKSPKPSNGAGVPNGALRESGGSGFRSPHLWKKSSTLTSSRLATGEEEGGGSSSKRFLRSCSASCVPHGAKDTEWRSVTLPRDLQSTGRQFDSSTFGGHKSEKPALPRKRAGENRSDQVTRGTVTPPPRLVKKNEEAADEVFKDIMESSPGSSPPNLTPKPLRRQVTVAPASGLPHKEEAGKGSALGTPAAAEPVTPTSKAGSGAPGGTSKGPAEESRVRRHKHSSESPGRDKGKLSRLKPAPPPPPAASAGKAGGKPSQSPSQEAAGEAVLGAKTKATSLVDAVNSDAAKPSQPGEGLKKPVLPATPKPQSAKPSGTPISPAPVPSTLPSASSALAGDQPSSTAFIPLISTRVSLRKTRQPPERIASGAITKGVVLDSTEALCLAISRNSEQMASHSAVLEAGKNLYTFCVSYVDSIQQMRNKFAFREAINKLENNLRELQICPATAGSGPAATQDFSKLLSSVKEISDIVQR
# T1 sequence (O96013 whole entry): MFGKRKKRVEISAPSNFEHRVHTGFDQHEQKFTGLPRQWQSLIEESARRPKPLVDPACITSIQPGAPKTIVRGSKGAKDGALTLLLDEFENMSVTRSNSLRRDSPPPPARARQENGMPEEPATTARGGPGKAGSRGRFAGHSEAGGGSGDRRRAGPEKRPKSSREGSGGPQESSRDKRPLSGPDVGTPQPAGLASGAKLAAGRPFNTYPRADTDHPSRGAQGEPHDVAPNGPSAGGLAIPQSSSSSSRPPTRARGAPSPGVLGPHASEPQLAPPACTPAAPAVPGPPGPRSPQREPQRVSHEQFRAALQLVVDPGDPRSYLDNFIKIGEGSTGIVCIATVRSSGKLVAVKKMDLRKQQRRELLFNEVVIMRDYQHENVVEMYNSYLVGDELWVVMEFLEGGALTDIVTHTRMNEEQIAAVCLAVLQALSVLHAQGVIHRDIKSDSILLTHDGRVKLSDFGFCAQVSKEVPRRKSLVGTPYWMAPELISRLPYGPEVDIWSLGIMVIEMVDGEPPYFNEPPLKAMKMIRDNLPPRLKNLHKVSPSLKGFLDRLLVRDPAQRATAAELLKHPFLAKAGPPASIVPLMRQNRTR
# T5 sequence (P49137 whole entry): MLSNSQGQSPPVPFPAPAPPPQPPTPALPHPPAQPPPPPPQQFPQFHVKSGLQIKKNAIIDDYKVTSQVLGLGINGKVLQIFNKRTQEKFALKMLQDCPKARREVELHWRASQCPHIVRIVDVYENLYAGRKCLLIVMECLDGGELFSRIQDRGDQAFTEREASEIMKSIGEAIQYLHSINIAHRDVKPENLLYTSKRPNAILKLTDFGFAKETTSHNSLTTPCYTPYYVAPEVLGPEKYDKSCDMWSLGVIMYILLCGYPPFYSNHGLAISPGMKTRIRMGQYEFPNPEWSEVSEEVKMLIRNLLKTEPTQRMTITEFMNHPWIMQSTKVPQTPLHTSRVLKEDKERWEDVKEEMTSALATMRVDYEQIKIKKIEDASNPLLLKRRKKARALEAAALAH
# T3 sequence (P49841 whole entry): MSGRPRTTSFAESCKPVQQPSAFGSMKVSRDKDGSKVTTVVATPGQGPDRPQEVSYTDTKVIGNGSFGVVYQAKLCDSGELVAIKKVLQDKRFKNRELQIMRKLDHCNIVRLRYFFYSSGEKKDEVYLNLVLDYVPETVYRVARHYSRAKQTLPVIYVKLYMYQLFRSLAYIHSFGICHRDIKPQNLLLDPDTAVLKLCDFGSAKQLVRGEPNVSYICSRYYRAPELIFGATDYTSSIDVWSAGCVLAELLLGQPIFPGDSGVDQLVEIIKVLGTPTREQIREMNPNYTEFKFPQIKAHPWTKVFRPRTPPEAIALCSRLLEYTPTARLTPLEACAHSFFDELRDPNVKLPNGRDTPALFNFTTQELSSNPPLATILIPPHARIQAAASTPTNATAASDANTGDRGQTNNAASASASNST
SMILES,remaining binding at 1 µM [1] [%],remaining binding at 1 µM [2] [%],remaining binding at 1 µM [3] [%],remaining binding at 1 µM [4] [%],remaining binding at 1 µM [5] [%],remaining binding at 1 µM [6] [%],remaining binding at 1 µM ([7]; ABL1(F317I)-nonphosphorylated) [%],remaining binding at 1 µM ([7]; ABL1(F317I)-phosphorylated) [%],remaining binding at 1 µM [8] [%]
"CNc1nc(Nc2ccc(S(=O)(=O)N3CCC(N4CCOCC4)CC3)cc2OC)nc2[nH]cc(Cl)c12 [Compound 12, 5-chloro-N2-(2-methoxy-4-((4-morpholinopiperidin-1-yl)sulfonyl)phenyl)-N4-methyl-7H-pyrrolo[2,3-d]pyrimidine-2,4-diamine]",100,93,96,61,72,100,100,54,28
"CNc1nc(Nc2ccc(C(=O)N3CCC(N4CCOCC4)CC3)c3c2OCO3)nc2[nH]cc(Cl)c12 [Compound 75, (7-((5-chloro-4-(methylamino)-7H-pyrrolo[2,3-d]pyrimidin-2-yl)amino)benzo[d][1,3]dioxol-4-yl)(4-morpholinopiperidin-1-yl)methanone]",100,100,97,6.2,31,100,100,83,0
"CNc1nc(Nc2ccc(P3(=O)CCN(C4CCOCC4)CC3)cc2OC)nc2[nH]cc(Cl)c12 [Compound 77, 4-(4-((5-chloro-4-(methylamino)-7H-pyrrolo[2,3-d]pyrimidin-2-yl)amino)-3-methoxyphenyl)-1-(tetrahydro-2H-pyran-4-yl)-1,4-azaphosphinane 4-oxide]",100,97,100,39,100,100,100,51,39
